From PubChem BioAssay (NCI)
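Protocol summary: plate cells (96-well), add compound at 5 concentrations, incubate 48 h, interpolate endpoints linearly. The concentration for 50% growth inhibition is given as GI50. The concentration for full growth arrest is given as TGI.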

Assays:
Assay in all cases: DTP human tumour cell line panel, 48 h
[1] = test system: BT-549 breast
[2] = test system: HCT-116 colon
[3] = test system: IGROV1 ovarian
[4] = test system: K-562 leukemia
[5] = test system: NCI-H460 lung
[6] = test system: SF-268 CNS
[7] = test system: SK-MEL-2 melanoma
[8] = test system: SK-MEL-28 melanoma
[9] = test system: SW-620 colon
[10] = test system: T-47D breast

SMILES | GI50 [1] [µM] | TGI [1] [µM] | GI50 [2] [µM] | TGI [2] [µM] | GI50 [3] [µM] | TGI [3] [µM] | GI50 [4] [µM] | TGI [4] [µM] | GI50 [5] [µM] | TGI [5] [µM] | GI50 [6] [µM] | TGI [6] [µM] | GI50 [7] [µM] | TGI [7] [µM] | GI50 [8] [µM] | TGI [8] [µM] | GI50 [9] [µM] | TGI [9] [µM] | TGI [10] [µM] | GI50 [10] [µM]
COc1c(N2CCN(CN3C(=O)C(=Nc4ccc(S(=O)(=O)Nc5ncccn5)cc4)c4cc(Cl)ccc43)C(C)C2)c(F)cc2c(=O)c(C(=O)O)cn(C3CC3)c12 (configuration not stated) | 20.4 | > 50 | 9.19 | 21.7 | 15.8 | > 50 | 21.5 | > 50 | 10.9 | 46 | 12.1 | > 50 | 26.6 | > 50 | 30.4 | > 50 | 10.7 | 44.7 |  | 
N#Cc1cccc(C2C3=C(COC3=O)N(CCO)c3cc4c(cc32)OCO4)c1 (configuration not stated) | 1.98 | > 50 | 1.43 | > 50 | 8.08 | > 50 | 0.294 | > 50 | 1.83 | > 50 | 3.99 | > 50 |  |  | 25.5 | > 50 | 1.53 | > 50 |  | 
CC(=O)[CH-]C(=O)c1ccccc1.CC(=O)[CH-]C(=O)c1ccccc1.[O-]c1ccc2c(c1)OCO2.[O-]c1ccc2c(c1)OCO2.[Ti+4] |  |  | 37 | > 100 | 34.5 | > 100 | 31.5 | > 100 | 21.1 | 72.6 | 33.6 | > 100 | 22.5 | 57.7 | 32.7 | > 100 | 32.1 | > 100 |  | 
Nc1ccc(/C=C/c2ccc3cccnc3c2)cc1 |  |  |  | > 100 |  |  |  | > 100 |  | > 100 |  | > 100 |  |  |  | > 100 |  | > 100 | > 100 | 
COC(=O)C1CCc2nnc(-c3ccccc3)n21 (configuration not stated) |  |  |  | > 100 |  | > 100 |  | > 100 |  | > 100 |  | > 100 |  | > 100 |  | > 100 |  | > 100 |  | 
NC(=O)c1ccc(Cl)c([N+](=O)[O-])c1 |  |  |  | > 100 |  | > 100 |  | > 100 |  | > 100 |  | > 100 |  |  |  | > 100 |  | > 100 |  | 
C[C@H]1C=C2C(=O)O[C@H]3CC[C@@H](C1)[C@@]23O |  |  |  | 9.24 |  | 19 |  | 8.26 |  | 19.4 |  | 15.2 |  | 10.1 |  | 16.1 |  | 10.3 |  | 
CO[C@@]1(c2ccccc2)O[C@H]2OCCC2[C@H]1c1ccc(Cl)cc1 (some centres not stated) |  |  |  | > 100 |  | > 100 |  | > 100 |  | 57.8 |  | > 100 |  | 80.9 |  | > 100 |  | > 100 |  | 
C=C1C[C@@H]2C[C@@H](C)CC(O)[C@]2(CCCN)C1O (some centres not stated) |  |  |  | > 100 |  | > 100 |  | > 100 |  | > 100 |  | > 100 |  | > 100 |  | > 100 |  | > 100 |  | 
O=C(/C=C/C12c3ccccc3C(c3ccccc31)C1C(=O)NC(=O)C12)c1ccccc1 (configuration not stated) | 1.4 | 2.84 | 1.35 | 2.89 | 2.03 | 4.52 | 1.94 | > 100 | 1.68 | 4.65 | 2.17 | 6.55 | 2.35 | 4.62 | 1.88 | 3.63 | 1.92 | 4.93 |  | 
CC(=O)[O-].N.N.N.N.[Co+3].[O-][Cl+3]([O-])([O-])[O-].[OH3+] |  |  | > 100 | > 100 | > 100 | > 100 | > 100 | > 100 | > 100 | > 100 | > 100 | > 100 | > 100 | > 100 | > 100 | > 100 | > 100 | > 100 |  | 
CC(=O)Oc1ccc2c(c1)C(=O)c1nc(C)c(C)nc1C2=O |  |  |  | > 100 |  | > 100 |  | > 100 |  | > 90.1 |  | > 100 |  | > 86.3 |  | > 100 |  | > 100 |  | 
COC(=O)N/N=C(\C)CC(=O)Nc1ccc(Cl)cc1 |  |  |  | > 100 |  | > 100 |  | > 100 |  | > 100 |  | > 100 |  | > 100 |  | > 100 |  | > 100 |  | 
Cc1cccc2c1[nH]c(=O)c1c3ccccc3cn21 | 12 | 59.2 | 2.69 | 11.7 | 3.69 | > 100 |  |  | 1.89 |  | 3.03 | 8.49 | 14.4 | > 100 | 6.86 | > 100 | 5.76 | 17.8 | 48.5 | 11.5
c1ccc(OC2=NC3=S(S2)SC(Oc2ccccc2)=N3)cc1 |  |  |  | 33.4 |  | 44.7 |  | 38 |  | > 100 |  | 57.6 |  | 29.8 |  |  |  | 35.2 |  | 
C[CH2][Sn]([CH2]C)([O]C(=O)c1ccc(F)cc1)[O]C(=O)c1ccc(F)cc1 |  |  | 33 | > 55.8 | > 80.5 | > 100 | 16.7 | 64.7 | > 100 | > 100 | 17.9 | 33.5 | 12.8 | 17.5 | 18.6 | 34.8 | 22 | 46.7 |  | 
COc1ccc([C@@H]2OC(=O)C3C2C(=O)O[C@H]3c2ccc(OC)c(OC)c2)cc1OC (some centres not stated) |  |  |  | > 100 |  | > 100 |  | > 100 |  | > 100 |  | > 100 |  | > 100 |  | > 100 |  | > 100 |  | 
CC1=CCCC2C(C=O)(C1)CC(C)C2(CO)CC/C(=C/CO)CO (configuration not stated) |  |  |  | > 100 |  | > 100 |  | > 100 |  | > 100 |  |  |  |  |  | > 100 |  | > 100 |  | 
O=c1c2cc3ccccc3n2c(=O)c2cc3ccccc3n12 |  |  |  | > 100 |  |  |  | > 100 |  | > 100 |  | > 100 |  | > 100 |  | > 100 |  | > 100 |  | 
